This experiment has as its target Benzodiazepine receptors (BDZ-Rs). Kind of experiment: Inhibition of 3H-flunitrazepam (3H-FNZ) binding to washed rat cerebral cortical membranes. Here is the method:
Adult male Wistar rats weighing 250g were used for biochemical experiments.
Membrane preparations were carried out according to Medina et al. (1990). Briefly, brains were rapidly dissected out on ice and the different structures were homogenized in 10 volumes of 0.32 M sucrose and centrifuged at 900 x g for 10 min. The resulting supernatant was centrifuged at 100,000 x g for 30 min and the pellet washed twice in 25mM Tris HCl buffer pH 7.4 at 100,000 x g for 30 min,and stored at-20°C until used.
Binding affinities to BDZ-Rs were determined by the ability of the compounds to inhibit Hoffman-La Roche ^3H-flunitrazepam (^3H-FNZ) binding to extensively washed rat cerebal cortical membranes following the method as described by Levi de Stein, M. et al., Mol. Brain Res (1989),5, pp 9-15.
In brief, for each assay, triplicate samples of the membranes, containing 0.2 to 0.4 mg protein were suspended in a final volume of 1 ml of 0.25 mM Tris-HCl buffer, pH 7.3.
The incubation was carried out at 4°C for 60 min with 0.5 nM ^3H-FNZ. To study the binding saturation, a range of 0.3 to 10 nM ^3H-FNZ was used. Non-specific binding was determined in parallel incubations in the presence of 3µM FNZ, and represented 5-15% of total. The assays were terminated by filtration under vacuum through Whatman GF/A glass-fiber filters, and three washes with 3mL each of incubation medium. Filters were dried and counted after the addition of 5 mL of 2,5-diphenyloxazole/xylene as scintillation fluid.
The competition curves were analyzed using Graph-Pad Prism software.
Figures 1-5 show representative displacement curves of [^3H] flunitrazepam (0.5 nM) binding by different flavones to washed crude synaptosomal membranes from rat cerebral cortex.

Setting [1] is: Rat Cerebral Cortex membranes, 0.5 nM 3H-FNZ, means of 3-5 independent determinations, read-out: Ki^b.
[2] abbreviates: mean ± SEM from displacement curves of [3H] flunitrazepam binding to rat synaptosomal membranes, read-out: Ki.
[3] abbreviates: single representative displacement curve (Figures 1-5), [3H] flunitrazepam 0.5 nM, washed crude synaptosomal membranes from rat cerebral cortex, read-out: Ki.

The source of these data is patent publication EP0973516B1, “USE OF HALO AND/OR NITRO-SUBSTITUTED FLAVONOIDS AS ANXYOLITICS” (University of Strathclyde, priority 1997, dated 1998).

The term Ki denotes the equilibrium dissociation constant of an inhibitor or competing ligand from its target.

Like-named read-outs stand apart in the source and are kept apart here.

Consider `O=c1cc(-c2ccccc2)oc2ccc([N+](=O)[O-])cc12` [Compound A1, 6-nitroflavone], for which the Ki under setting [1] worked out at 0.275 µM, the Ki under setting [2] was 0.275 ± 0.0411 µM and the Ki under setting [3] is 0.315 µM.
On to `O=c1cc(-c2cccc(Cl)c2)oc2ccccc12` [Compound A2, 3'-chloroflavone], for which the Ki is 0.614 µM under setting [1], 0.614 ± 0.0327 µM under setting [2] and 0.665 µM under setting [3].
On the same counts, the results for `O=c1cc(-c2cccc(Br)c2)oc2ccccc12` [Compound A3, 3'-bromoflavone] are 0.413 µM, 0.414 ± 0.046 µM and 0.427 µM.
On the same counts, the results for `O=c1cc(-c2cccc(Br)c2)oc2ccc(Br)cc12` [Compound A4, 6,3'-dibromoflavone] are 0.019 µM, 0.0186 ± 0.00218 µM and 0.0227 µM.
On the same counts, the results for `O=c1cc(-c2cccc(Br)c2)oc2ccc([N+](=O)[O-])cc12` [Compound A5, 6-nitro-3'-bromoflavone] are 0.025 µM, 0.0252 ± 0.00246 µM and 0.0218 µM.
On to `O=c1cc(-c2ccccc2)oc2ccccc12` [Flavone 6, Flavone, reference compound], for which, under setting [1], the inhibition constant Ki came out at 1 µM.
